Test results published in paper PMC9623849 (iScience, 2022).
Where two headings read alike, the source gives them in different places.

How the values were obtained:
[1] = test system: SARS-CoV-2 WK-521 (ancestral Wuhan strain); format: cell-based; settings: Table 2; VeroE6 cells, RNA-qPCR
in vitro = settings: African green monkey, CC50, Table 1; VeroE6 cells, WST-8
SARS-CoV-2 M^pro/3CL^pro = SARS-CoV-2 M^pro/3CL^pro (Severe acute respiratory syndrome coronavirus 2, UniProt P0DTD1); assay: biochemical; settings: for IC50 fold change to 5h (in parentheses): Table 1
[2] = test system: SARS-CoV-2 WK-521 infected VeroE6 cells; settings: concentrations up to 100 μM (Figure S3)
[3] = mice
in vivo = settings: female, Jcl:ICR (ICR), mouse, iv, 2 mg/kg, mice, i.v. 2.0 mg/kg, 240 min

| Compound | EC75 [1] | EC99 [1] | CC50 (in vitro) | IC50 (SARS-CoV-2 M^pro/3CL^pro) | IC50 fold change to 5h (in parentheses) (SARS-CoV-2 M^pro/3CL^pro) | cytotoxicity in immunostaining experiments [2] | blood concentrations after administration ([3]; i.p. 20 mg/kg) | blood concentrations after administration ([3]; i.v. 2.0 mg/kg) | blood concentrations after administration ([3]; p.o.) | half-life (in vivo) | half-life, times longer than that of the parent compound ([3]; i.v. 2.0 mg/kg, relative to 5h (2)) |
| --- | --- | --- | --- | --- | --- | --- | --- | --- | --- | --- | --- |
| COc1ccc(F)c2[nH]c(C(=O)N[C@@H](CC(C)C)C(=O)N[C@@H](C[C@@H]3CCNC3=O)C(=O)c3nc4c(F)cccc4s3)cc12 [Compound 3] | 460 ± 20 nM | 0.97 ± 0.0020 µM | > 100000 nM | 37 ± 1 nM | 0.10 | no significant cytotoxicity at concentrations up to 100 μM | – | – | – | – | – |
| COc1ccc(F)c2[nH]c(C(=O)N[C@@H](CC(C)C)C(=S)N[C@@H](C[C@@H]3CCNC3=O)C(=O)c3nc4c(F)cccc4s3)cc12 [Compound 4] | 590 ± 30 nM | 4.1 ± 3.1 µM | > 100000 nM | 370 ± 15 nM | 1.0 | no significant cytotoxicity at concentrations up to 100 μM | maintained remarkably higher blood concentrations than compound 3 | higher blood concentrations of compound 4 were maintained compared with those of compound 3 after 60 min, and even 240 min | maintained remarkably higher blood concentrations for the first day than compound 3 | – | – |
| CC(C)C[C@H](NC(=O)c1cc2c(F)ccc(F)c2[nH]1)C(=O)N[C@@H](C[C@@H]1CCNC1=O)C(=O)c1nc2cc(F)ccc2s1 [Compound 44] | – | – | > 100000 nM | 120 ± 10 nM | 0.34 | – | – | – | – | ~30 min | – |
| CC(C)C[C@H](NC(=O)c1cc2c(F)cc(F)cc2[nH]1)C(=O)N[C@@H](C[C@@H]1CCNC1=O)C(=O)c1nc2cc(F)ccc2s1 [Compound 54] | – | – | > 100000 nM | 540 ± 20 nM | 1.5 | – | – | – | – | – | – |
| COc1cccc2[nH]c(C(=O)N[C@@H](CC(C)C)C(=S)N[C@@H](C[C@@H]3CCNC3=O)C(=O)c3nc4ccccc4s3)cc12 [Compound 60] | – | – | > 100000 nM | 990 ± 60 nM | 2.8 | – | – | High blood concentrations of compound 60 were maintained after 60 min, and even 240 min had passed | – | 50 to 60 min | 2–3 times |
| CC(C)(C)[C@H](NC(=O)C(F)(F)F)C(=O)N1C[C@H]2[C@@H]([C@H]1C(=O)N[C@H](C#N)C[C@@H]1CCNC1=O)C2(C)C [PF-07321332 (1), Nirmatrelvir, reference compound] | 4400 ± 210 nM | 9.7 ± 0.015 µM | > 100000 nM | – | – | – | – | – | – | < 23 min | – |
| CCC(CC)COC(=O)[C@H](C)N[P@](=O)(OC[C@H]1O[C@@](C#N)(c2ccc3c(N)ncnn23)[C@H](O)[C@@H]1O)Oc1ccccc1 [Remdesivir, reference compound] | – | – | > 100000 nM | – | – | – | – | – | – | – | – |
